Experimental data reported in patent US20110028719A1, “SCREENING METHODS FOR AMYLOID BETA MODULATORS” (priority 2006, published 2011).

The molecules below were run against immobilized Aβ fibrils (Homo sapiens, UniProt P05067) (assay: FAC-MS assay of free Aβ monomer (indicator) binding to immobilized Aβ fibrils in the presence of test compounds). Settings: FAC-MS % shift of breakthrough time of free Aβ1-42 monomer (1 μM) on immobilized Aβ fibrils; compounds 1-10 μM in 20 mM NH4OAc, 1% DMSO; void marker M3.
Sequence of immobilized Aβ fibrils (P05067 672-713 limits assumed): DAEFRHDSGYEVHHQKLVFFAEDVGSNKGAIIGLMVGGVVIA

In the case of `O=S(=O)([O-])OC1C(OS(=O)(=O)[O-])C(OS(=O)(=O)[O-])C(OS(=O)(=O)[O-])C(OS(=O)(=O)[O-])C1OS(=O)(=O)[O-].[K+].[K+].[K+].[K+].[K+].[K+]` (stereo not drawn) [Compound I-6005, myo-inositol hexasulfate hexapotasium, reference compound], the “% of Shift” value is reported as 4%.

Same assay, conditions: FAC-MS screen; shift of free Aβ monomer breakthrough on immobilized Aβ fibrils in presence of compound; scale not given

Point of comparison: `CC1(C(=O)O)CC(C)(C(=O)O)CC(C)(C(=O)O)C1` (stereo not drawn), “Aβ Shift” value 1. Against it:
- CC1CCCC(NC(=O)C2CCCCC2C(=O)O)C1C (stereo not drawn) — lower, 0
- CC1CCC(C(C)C)C(OC(=O)CN2CCOCC2)C1 (stereo not drawn) — the same, 1
- CC12CC3CC(C)(C1)CC(C(=O)NO)(C3)C2 — the same, 1
- CC(C)CC(=O)O[C@@H]1[C@@H](OC(=O)CC(C)C)[C@H](OC(=O)CC(C)C)[C@H](O)[C@H](OC(=O)CC(C)C)[C@H]1OC(=O)CC(C)C — higher, 2
- CC12CC3(C)CC(CC(N)=O)(C1)CC(C(N)=O)(C2)C3 — lower, 0
- CC12CC3(C)CC(C)(C1)CC(C(N)=O)(C2)C3 — the same, 1
- CN(C)C(=O)C12CC3(C)CC(C)(CC(C)(C3)C1)C2 — the same, 1
- CC1CCC(C(C)C)C(OC(=O)C[n+]2ccccc2)C1 (stereo not drawn) — the same, 1
- Cc1cc(NC(=O)C23CC4CC(C)(CC(C)(C4)C2)C3)no1 — the same, 1
- CC(O)C#CC1(O)C(C)CCCC1(C)C (stereo not drawn) — the same, 1
- CC(C)=CCCC12CCC(CO)(CO1)C(C)C2 (stereo not drawn) — the same, 1
- CC1CCCC(NC(=O)c2cc3sccc3n2C)C1C (stereo not drawn) — higher, 2
- CC1CCC(C(C)C)C(OC(=O)NC(=O)C(F)(F)F)C1 (stereo not drawn) — higher, 2
- CC(=O)NC12CC3(C)CC(C)(CC(O)(C3)C1)C2 — the same, 1
- CC1CC(NC(=O)C2CCC2)CC(C)(C)C1 (stereo not drawn) — lower, 0
- CC12CC3CC(C)(C1)CC(C(=O)NC(C)(C)CO)(C3)C2 — the same, 1
